Measurements published in ChEMBL document CHEMBL1139021, “Synthesis of Tic-D-Phe Psi[CH2-CH2] isostere and its use in the development of melanocortin receptor agonists” (Bioorg Med Chem Lett, 2006).
Where a SMILES comes first, the peptide text is derived from it. [ ]: non-standard residue; d: D form. 2Nal = N[C@@H](Cc1ccc2ccccc2c1)C(=O)O

How the values were obtained:
Melanocortin receptor 3 = Melanocortin receptor 3 (Homo sapiens, UniProt P41968); assay: Binding affinity to MC3 receptor
Melanocortin receptor 4 [1] = biological target: T1, Melanocortin receptor 4 (Homo sapiens, UniProt P32245); assay: Agonist potency at MC4 receptor; format: functional
[2] = biological target: Melanocyte-stimulating hormone receptor (Homo sapiens, UniProt Q01726); assay: Binding affinity to MC1 receptor
Melanocortin receptor 4 [3] = biological target: T1, Melanocortin receptor 4; assay: Binding affinity to MC4 receptor

T1 sequence (P32245 whole entry): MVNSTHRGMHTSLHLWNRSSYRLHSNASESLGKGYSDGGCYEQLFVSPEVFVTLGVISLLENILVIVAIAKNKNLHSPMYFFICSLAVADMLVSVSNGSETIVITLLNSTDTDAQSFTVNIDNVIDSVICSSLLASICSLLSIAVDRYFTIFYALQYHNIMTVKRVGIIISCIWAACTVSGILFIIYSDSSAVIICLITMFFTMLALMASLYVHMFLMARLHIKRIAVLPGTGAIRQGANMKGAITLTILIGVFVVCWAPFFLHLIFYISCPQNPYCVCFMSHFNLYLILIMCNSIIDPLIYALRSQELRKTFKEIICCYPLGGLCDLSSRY
Sequence of Melanocortin receptor 3 (P41968 whole entry): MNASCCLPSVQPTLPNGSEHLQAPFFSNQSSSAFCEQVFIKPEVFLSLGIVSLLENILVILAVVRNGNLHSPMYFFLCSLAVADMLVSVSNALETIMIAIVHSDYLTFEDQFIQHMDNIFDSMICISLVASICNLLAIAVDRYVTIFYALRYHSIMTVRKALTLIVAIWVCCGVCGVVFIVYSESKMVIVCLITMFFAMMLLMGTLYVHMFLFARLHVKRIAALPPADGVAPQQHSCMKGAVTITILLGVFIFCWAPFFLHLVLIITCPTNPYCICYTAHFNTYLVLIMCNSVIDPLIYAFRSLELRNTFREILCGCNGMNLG
Sequence of Melanocyte-stimulating hormone receptor (Q01726 whole entry): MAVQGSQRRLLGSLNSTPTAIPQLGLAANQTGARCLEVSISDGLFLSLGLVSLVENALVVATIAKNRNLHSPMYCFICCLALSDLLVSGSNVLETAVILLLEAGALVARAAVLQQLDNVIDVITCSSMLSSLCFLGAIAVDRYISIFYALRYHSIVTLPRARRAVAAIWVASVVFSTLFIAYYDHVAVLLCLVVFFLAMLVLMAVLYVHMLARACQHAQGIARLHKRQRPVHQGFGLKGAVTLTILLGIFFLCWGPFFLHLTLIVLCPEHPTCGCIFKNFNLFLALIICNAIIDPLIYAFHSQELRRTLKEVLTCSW

Structure (SMILES)	Ki (Melanocortin receptor 3) [nM]	EC50 (Melanocortin receptor 4 [1]) [nM]	Emax (Melanocortin receptor 4 [1]) [%]	Ki [2] [µM]	Ki (Melanocortin receptor 4 [3]) [nM]
CNC(=O)[C@H](Cc1ccc2ccccc2c1)NC(=O)[C@H](CCCN=C(N)N)NC(=O)[C@H](CC[C@@H]1Cc2ccccc2CN1)Cc1ccccc1	2410	160	77	3.99	220
CNC(=O)[C@H](Cc1ccc2ccccc2c1)NC(=O)[C@H](CCCN=C(N)N)NC(=O)[C@H](CC[C@H](Cc1ccc(Cl)cc1)NC(C)=O)Cc1ccc(F)cc1	18000	193	100	12.3	214
CNC(=O)[C@H](Cc1ccc2ccccc2c1)NC(=O)[C@H](CCCN=C(N)N)NC(=O)[C@H](CC[C@H](Cc1ccc(O)cc1)NC(C)=O)Cc1ccccc1	24700	38	90	8.56	214
CNC(=O)[C@H](Cc1ccc2ccccc2c1)NC(=O)[C@H](CCCN=C(N)N)NC(=O)[C@H](CC[C@H](Cc1ccccc1)NC(C)=O)Cc1ccc(F)cc1	55500	20	102	23.4	37
CNC(=O)[C@H](Cc1ccc2ccccc2c1)NC(=O)[C@H](CCCN=C(N)N)NC(=O)[C@@H](Cc1ccccc1)NC(=O)[C@H](Cc1ccc(O)cc1)NC(C)=O (Ac-Y[dF]R[2Nal]-NHMe)	1730	44	–	4.52	104
CNC(=O)[C@H](Cc1ccc2ccccc2c1)NC(=O)[C@H](CCCN=C(N)N)NC(=O)[C@H](CC[C@H](Cc1ccc(O)cc1)NC(C)=O)Cc1ccc(F)cc1	6200	10	91	22.3	5

The next compounds have a lower Ki (Melanocortin receptor 3) than those just listed; values first:

Ki (Melanocortin receptor 3) [nM]	EC50 (Melanocortin receptor 4 [1]) [nM]	Emax (Melanocortin receptor 4 [1]) [%]	Ki [2] [µM]	Ki (Melanocortin receptor 4 [3]) [nM]	Structure (SMILES)
1630	10	81	2.28	24	CNC(=O)[C@H](Cc1ccc2ccccc2c1)NC(=O)[C@H](CCCN=C(N)N)NC(=O)[C@@H](Cc1ccccc1)NC(=O)[C@@H]1Cc2ccccc2CN1
468	22	89	0.03	13	N=C(N)NCCC[C@H]1C[C@@H](OCc2ccccc2)CN1C(=O)[C@@H](Cc1ccccc1)NC(=O)C1Cc2ccccc2CN1 (single isomer, unassigned)
382	142	76	0.071	76	N=C(N)NCCC[C@H]1C[C@@H](OCc2ccccc2)CN1C(=O)[C@H](CC[C@H]1Cc2ccccc2CN1)Cc1ccccc1
23	8	84	0.009	10	CC(=O)N[C@H](Cc1ccc(O)cc1)C(=O)N[C@H](Cc1ccccc1)C(=O)N1C[C@H](OCc2ccccc2)C[C@@H]1CCCN=C(N)N
